Laboratory results taken from patent publication US10273278B2, “Epitope recognized by anti-interferon gamma autoantibodies in patients with disseminated mycobacterial infections and the application therefor” (priority 2015, dated 2019).
Ends that are not written are not given here.

Experiments:
anti-IFNr AutoAbs [1] = test: Protein mapping ELISA of recombinant IFNr proteins with blood plasma; assay type: binding, human; conditions: patients' blood plasma, OD 405 nm
anti-IFNr AutoAbs [2] = test: Immunoblotting (Western blot / dot blot) with patient or control plasma; assay type: binding, human; conditions: plasma from healthy donors
Experimental: Recombinant IFNr[…] (R&D Systems) and different truncated forms of recombinant IFNr[…] were subjected to SDS-PAGE using a 10% gel under reducing conditions at 120 V for 2 hours. The proteins were transferred to a PVDF membrane (Invitrogen Life Technologies) at 250 mA for 2 hours. The membrane was blocked in 5% human normal serum albumin (Aventis) in TBS with 0.1% Tween 20 overnight at 4° C. The membrane was incubated with a 1/100 dilution of patient or control blood plasma for 3 hours at room temperature. After being washed three times, the membrane was incubated in a 1/10,000 dilution of mouse anti-human IgG conjugated with horseradish peroxidase (Jackson ImmunoResearch Laboratories) for 1 hour at room temperature. After being washed three times, the membrane was developed with ECL (Merck Millipore).
Plasma from 3 healthy donors had no response to either IFNr1-131 or EE-IFNr.

p-STAT1 in PBMCs = test: p-STAT1 intracellular stain in PBMCs (CD14+ gated); assay type: cell-based, human
Experimental: A total of 10^6 PBMCs in 200 μL RPMI-1640 with 10% FBS and 1% penicillin/streptomycin was used. […] After 30 minutes of stimulation in a 37° C. incubator, monocytes were identified by FITC-CD14 (BD Pharmingen) surface staining. Fixed by adding 250 μL of FASC lysing solution (BD Pharmingen) and incubated at room temperature for 15 minutes in the dark, followed by two washes with PBS. To permeabilize the cells, 500 μl of ice-cold absolute methanol was added to each tube and incubated for 15 minutes on ice in the dark, followed by two washes with PBS. Next, PE-phospho-STAT1 (pY701) antibody (BD Pharmingen) was added, followed by 30 minutes incubation on ice in the dark. Again, cells were washed with 2 mL of PBS before resuspension in the 500 μL of PBS. Data were collected with a FACSVerse flow cytometer (BD Biosciences) and analyzed using FACSuite software (BD Biosciences).
Representative histograms (FIG. 2c(1)-FIG. 2c(2)) and MFI (median fluorescence intensity) (FIG. 2d) are shown.
After being gated on the CD14^+, p-STAT-1 levels were determined by flow cytometry with the p-STAT-1 monoclonal antibody. Representative histograms (FIG. 4a(1)-FIG. 4a(2)) and MFI (median fluorescence intensity) (FIG. 4b) are shown.

IL-12p40 in PBMCs = assay type: cell-based, human
[3] = system: HLA-DR expression in PBMCs; test: HLA-DR expression in PBMCs (CD14+ gated); assay type: cell-based, human; conditions: IFNr AutoAbs patients' PBMCs pre-incubated with 10% autologous plasma
Experimental: A total of 10^6 PBMCs in 200 μL RPMI-1640 with 10% FBS and 1% penicillin/streptomycin was used. Cells were then stimulated with 500 IU IFNr, IFNr_1-131 or EE-IFNr⋅ in 160 μL RPMI-1640 pre-incubated with 40 μL of normal blood plasma or patient blood plasma for 10 min at room temperature. After 24 hours of stimulation in a 37° C. incubator, monocytes were identified by FITC-CD14 (BD Pharmingen) surface staining. Next, PE-HLA-DR antibody (BD Pharmingen) was added followed by 30 minutes of incubation on ice in the dark. Cells were again washed with 2 ml of PBS before resuspension in 500 μl of PBS. Data were collected with a FACSVerse flow cytometer (BD Biosciences) and analyzed using FACSuite software (BD Biosciences).
After being gated on the CD14^+, HLA-DR expression levels were determined by flow cytometry with the HLA-DR monoclonal antibody. Representative histograms (FIG. 4d(1)-FIG. 4d(2)) and MFI (median fluorescence intensity) (FIG. 4e) are shown.

THP1 cells [4] = test: HLA-DR expression in THP1 cells; assay type: cell-based; conditions: in the presence of anti-IFNr AutoAbs
p-STAT1 in whole blood = p-STAT1 in whole blood ex vivo; assay type: cell-based, human
From the text: Representative histograms (FIG. 4f(1)-FIG. 4f(2)) and MFI (median fluorescence intensity) (FIG. 4g) are shown.

IL-12p40 in whole blood = assay type: cell-based, human
WKY/NcrlNarl rats = test: Immunization of rats with Noc2 or IFNr peptide conjugated with OVA; assay type: in vivo, rat; conditions: 0.25 mg peptide-OVA, booster every two weeks
Experimental: The inventor immunized WKY/NcrlNarl rats with 0.25 mg Noc2 or IFNr[…] peptide (Noc2: […] (SEQ NO: 31); IFNr: […] (SEQ NO: 32)) conjugated with ovalbumin (OVA) and gave a booster dose every two weeks after the initial injection (day 0). After 70 days, the inventor checked the antibody production level by dot blot or ELISA at each injection. All rats were sacrificed ten days after the tenth injection (day 136) and whole blood was collected. After collection of the whole blood, the blood was allowed to clot by leaving it undisturbed at room temperature 15 minutes. Clots were removed by centrifuging at 1500 g for 10 minutes in a refrigerated centrifuge. Sera were aliquoted and stored at −20° C. for further use.
Blood sera from pre-immunized rats (n=6), Noc2 peptide-immunized rats (n=4) and Peptide 6-immunized rats (n=2) were mapped to control peptide, Peptide 6 and Noc2 peptide from Aspergillus terreus or Aspergillus fumigatus. This is represented as the mean optical density (OD) at 405 nm.

human IFNr = target: T1, human IFNr (Homo sapiens, UniProt P01579); test: Blocking of hIFNr detection by sera of immunized rats; assay type: binding; conditions: sera incubated with 200 pg/mL of human IFNr
T1 sequence (P01579 24-166): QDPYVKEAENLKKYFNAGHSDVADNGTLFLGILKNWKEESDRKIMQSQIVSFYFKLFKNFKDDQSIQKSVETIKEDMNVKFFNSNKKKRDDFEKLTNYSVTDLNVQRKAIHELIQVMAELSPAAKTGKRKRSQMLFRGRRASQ
Experimental: Blood plasma from patients and donors was serially diluted (10^−1 to 10^−6) and incubated with recombinant human IFNr at a final concentration of 200 pg/mL for 1 hour at 37° C. The IFNr level was measured with a human IFNr ELISA kit from BD Biosciences according to the manufacturer's recommendations. All experiments were performed in duplicate.
However, blood sera from Noc2 peptide-immunized rats (n=4) and Peptide 6-immunized rats (n=2) at dilutions of up to 1/10^2 inhibited the detection of hIFNr.

THP1 cells [5] = test: p-STAT1 in THP1 cells pre-incubated with sera of immunized rats and treated with IFNr; assay type: cell-based; conditions: 50% sera

Row | Substance | affinity of anti-IFNr AutoAbs by ELISA (anti-IFNr AutoAbs [1]) | binding of plasma from healthy controls in Western blot (anti-IFNr AutoAbs [2]) | p-STAT1 signaling restored / up-regulated (p-STAT1 in PBMCs; IFNr AutoAbs patients' PBMCs pre-incubated with 10% autologous blood plasma) | phosphorylation of STAT1 (p-STAT1 in PBMCs; controls' PBMCs pre-incubated with 20% blood plasma with anti-IFNr AutoAbs from patients) | p-STAT1 signaling (p-STAT1 in PBMCs; controls' PBMCs, 20% control blood plasma) | IL-12p40 expression (IL-12p40 in PBMCs) | IL-12p40 production restored (IL-12p40 in PBMCs) | HLA-DR expression levels restored / up-regulated [3] | HLA-DR expression (THP1 cells [4]) | p-STAT1 signaling restored / up-regulated (p-STAT1 in whole blood; IFNr AutoAbs patients' whole blood) | p-STAT1 signal (p-STAT1 in whole blood; controls' whole blood) | IL-12p40 production restored (IL-12p40 in whole blood) | antibodies developed after immunization (WKY/NcrlNarl rats) | blocking of hIFNr detection by sera of immunized rats (serum dilution) (human IFNr) | p-STAT1 signaling after recombinant IFNr in presence of sera of immunized rats (THP1 cells [5])
1 | EE-IFNr: IFNr_1-131 protein with human P121-127 SPAAKTG sequence substituted with murine LPESSLR sequence (SEQ NO: 1) (listed as Mus musculus) | markedly decreased in comparison with wild type (WT) IFNr_1-131 | no response | four of six | could induce the phosphorylation of STAT1 | Up-regulation of the p-STAT1 signaling was observed | did restore IL-12p40 expression | three of six | four of six | up-regulation of HLA-DR expression | four of six | up-regulated | three of six | – | – | –
2 | CAAKTGKRKRSQM (also: conjugated to ovalbumin; UniProt P01579 146-157, looked up, fragment) | – | – | – | – | – | – | – | – | – | – | – | – | developed antibodies to human IFNr, which could cross-react with Aspergillus Noc2 | can block human recombinant IFNr | decreased up-regulation of p-STAT1 signaling
